Columns and labels:
Del19/T790M/C797S EGFR = experiment: EGFR degradation HTRF assay in H1975-clone #28 (DTC) cells; assay type: cell-based; details: H1975 # 28 DTC (Del19/T790M/C797S), 16h treatment; for DC50: HTRF; for Dmax (%): maximum percentage of degradation
Outline: (§1)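 Cells carrying only lentiviral mutant EGFR, since endogenous alleles were removed by CRISPR, received compounds on day 2 for 16 h. Final concentrations ran from 10 uM down in 5-fold steps over 8 doses. After lysis, EGFR levels were quantified by HTRF and DC50 derived by curve fitting.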

L858R/T790M/C797S EGFR = target: T1, L858R/T790M/C797S EGFR (Homo sapiens, UniProt P00533, C797S/L858R/T790M); experiment: EGFR degradation HTRF assay in H1975-clone #25 (LTC) cells; assay type: cell-based; details: 16h treatment; for DC50: H1975 # 25-LTC (L858R/T790M/C797S), HTRF; for Dmax: NCI-H1975, H1975 # 25-LTC (L858R/T790M/C797S), maximum percentage of degradation
T1 construct: expressed in transfected cells; host or cells: H1975 clone #25 (lentiviral over-expression, endogenous EGFR knocked out by sgRNA)
T1 sequence (P00533 25-1210 T790M/C797S/L858R): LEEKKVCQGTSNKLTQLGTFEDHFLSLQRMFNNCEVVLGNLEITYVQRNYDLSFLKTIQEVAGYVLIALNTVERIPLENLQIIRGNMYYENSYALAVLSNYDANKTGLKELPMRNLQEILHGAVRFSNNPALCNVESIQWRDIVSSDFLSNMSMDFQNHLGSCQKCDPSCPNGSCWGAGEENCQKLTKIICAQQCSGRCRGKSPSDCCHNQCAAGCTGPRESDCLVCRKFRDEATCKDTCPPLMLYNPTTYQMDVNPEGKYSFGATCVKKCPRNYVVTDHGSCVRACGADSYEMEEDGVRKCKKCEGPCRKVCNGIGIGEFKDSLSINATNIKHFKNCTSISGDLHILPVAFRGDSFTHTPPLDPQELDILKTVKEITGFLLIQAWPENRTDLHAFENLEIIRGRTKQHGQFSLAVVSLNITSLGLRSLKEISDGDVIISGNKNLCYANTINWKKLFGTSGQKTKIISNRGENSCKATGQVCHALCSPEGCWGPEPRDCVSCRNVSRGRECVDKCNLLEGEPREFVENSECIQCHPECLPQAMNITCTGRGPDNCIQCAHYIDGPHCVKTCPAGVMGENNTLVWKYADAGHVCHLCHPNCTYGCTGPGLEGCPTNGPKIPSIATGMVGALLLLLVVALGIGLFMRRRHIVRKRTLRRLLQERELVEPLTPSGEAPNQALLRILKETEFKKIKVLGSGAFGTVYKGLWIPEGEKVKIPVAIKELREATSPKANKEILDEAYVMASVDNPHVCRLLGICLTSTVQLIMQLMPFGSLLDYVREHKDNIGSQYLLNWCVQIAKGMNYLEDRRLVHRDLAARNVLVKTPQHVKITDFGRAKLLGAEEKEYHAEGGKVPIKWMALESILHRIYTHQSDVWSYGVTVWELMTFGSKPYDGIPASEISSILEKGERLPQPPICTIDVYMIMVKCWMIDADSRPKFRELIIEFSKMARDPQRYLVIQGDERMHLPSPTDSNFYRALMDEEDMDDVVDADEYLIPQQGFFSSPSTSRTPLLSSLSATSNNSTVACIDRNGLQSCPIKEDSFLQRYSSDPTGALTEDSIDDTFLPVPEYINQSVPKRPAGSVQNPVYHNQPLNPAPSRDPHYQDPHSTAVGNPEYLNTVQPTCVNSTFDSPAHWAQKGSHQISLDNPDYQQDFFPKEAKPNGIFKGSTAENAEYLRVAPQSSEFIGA
Outline: as §1

DC50 (Del19/T790M/C797S EGFR) [nM]	DC50 (L858R/T790M/C797S EGFR) [nM]	Dmax (L858R/T790M/C797S EGFR) [%]	Compound	Dmax (%) (Del19/T790M/C797S EGFR)
0.647	0.678	88.7	Cc1cc2cc(n1)-c1cnn(C)c1OCCC[C@@H](C)CN1/C(=N/C2=O)Nc2ccc(N3CCC(N4CCN(c5cc(F)c([C@H]6CCC(=O)NC6=O)c(F)c5)CC4=O)CC3)cc21 [Example 450, (R)-3-(2,6-difluoro-4-(3-oxo-4-(1-((R,E)-1^1,2^6,7-trimethyl-3-oxo-5^2,5^3-dihydro-1^1H,5^1H-11-oxa-4-aza-5(2,1)-benzo[d]imidazola-2(2,4)-pyridina-1(4,5)-pyrazolacycloundecaphane-5^6-yl)piperidin-4-yl)piperazin-1-yl)phenyl)piperidine-2,6-dione]	83.01
0.606	0.881	90.9	Cc1cc2cc(n1)-c1cnn(C)c1OCCC[C@@H](C)CN1/C(=N/C2=O)Nc2ccc(N3CCN(CC4CN(c5cc(F)c([C@H]6CCC(=O)NC6=O)c(F)c5)C4)[C@H](CO)C3)cc21 [Example 451, (R)-3-(2,6-difluoro-4-(3-(((S)-2-(hydroxymethyl)-4-((R,E)-1^1,2^6,7-trimethyl-3-oxo-5^2,5^3-dihydro-1^1H,5^1H-11-oxa-4-aza-5(2,1)-benzo[d]imidazola-2(2,4)-pyridina-1(4,5)-pyrazolacycloundecaphane-5^6-yl)piperazin-1-yl)methyl)azetidin-1-yl)phenyl)piperidine-2,6-dione]	81.53
1.29	0.98	78.5	Cc1cc2cc(n1)-c1cnn(C)c1OCCC[C@@H](C)CN1/C(=N/C2=O)Nc2ccc(N3CCN(C4CCN(c5cc(F)c([C@H]6CCC(=O)NC6=O)c(F)c5)CC4)[C@@H](CC#N)C3)cc21 [Example 452, 2-((S)-1-(1-(4-((R)-2,6-dioxopiperidin-3-yl)-3,5-difluorophenyl)piperidin-4-yl)-4-((R,E)-1^1,2^6,7-trimethyl-3-oxo-5^2,5^3-dihydro-1^1H,5^1H-11-oxa-4-aza-5(2,1)-benzo[d]imidazola-2(2,4)-pyridina-1(4,5)-pyrazolacycloundecaphane-5^6-yl)piperazin-2-yl)acetonitrile]	75.73
1.43	3.17	85.3	COc1cc2cc(n1)-c1cnn(C)c1OCCC[C@@H](C)CN1/C(=N/C2=O)Nc2ccc(N3CCN(C4CCN(c5cc(F)c([C@H]6CCC(=O)NC6=O)c(F)c5)CC4)CC3)cc21 [Example 453, (R)-3-(2,6-difluoro-4-(4-(4-((R,E)-2^6-methoxy-1^1,7-dimethyl-3-oxo-5^2,5^3-dihydro-1^1H,5^1H-11-oxa-4-aza-5(2,1)-benzo[d]imidazola-2(2,4)-pyridina-1(4,5)-pyrazolacycloundecaphane-5^6-yl)piperazin-1-yl)piperidin-1-yl)phenyl)piperidine-2,6-dione]	82.83
0.765	1.08	86	Cc1cc2cc(n1)-c1cnn(C)c1OCCC[C@@H](C)CN1/C(=N/C2=O)Nc2ccc(N3CC(NC4CCN(c5cc(F)c([C@H]6CCC(=O)NC6=O)c(F)c5)CC4)C3)cc21 [Example 454, (R)-3-(2,6-difluoro-4-(4-((1-((R,E)-1^1,2^6,7-trimethyl-3-oxo-5^2,5^3-dihydro-1^1H,5^1H-11-oxa-4-aza-5(2,1)-benzo[d]imidazola-2(2,4)-pyridina-1(4,5)-pyrazolacycloundecaphane-5-yl)azetidin-3-yl)amino)piperidin-1-yl)phenyl)piperidine-2,6-dione]	68.28
0.912	0.537	90.8	Cc1cc2cc(n1)-c1cnn(C)c1OCC[C@H]1C[C@@H]1CN1/C(=N/C2=O)Nc2ccc(NC3CN(C4CCN(c5cc(F)c([C@H]6CCC(=O)NC6=O)c(F)c5)CC4)C3)cc21 [Example 455, (R)-3-(4-(4-(3-(((71S,72R,E)-1^1,2^6-dimethyl-3-oxo-5^2,5^3-dihydro-1^1H,5^1H-10-oxa-4-aza-5(2,1)-benzo[d]imidazola-2(2,4)-pyridina-1(4,5)-pyrazola-7(1,2)-cyclopropanacyclodecaphane-5^6-yl)amino)azetidin-1-yl)piperidin-1-yl)-2,6-difluorophenyl)piperidine-2,6-dione]	85.22
0.542	0.676	93.2	Cc1cc2cc(n1)-c1cnn(C)c1OCCC[C@@H](C)CN1/C(=N/C2=O)Nc2ccc(N3CCN(C4CCN(c5ccc(C6CCC(=O)NC6=O)nc5C)CC4)[C@@H](CC#N)C3)cc21 (stereo partly drawn) [Example 456, 2-((2S)-1-(1-(6-(2,6-dioxopiperidin-3-yl)-2-methylpyridin-3-yl)piperidin-4-yl)-4-((R,E)-1^1,2^6,7-trimethyl-3-oxo-5^2,5^3-dihydro-1^1H,5^1H-11-oxa-4-aza-5(2,1)-benzo[d]imidazola-2(2,4)-pyridina-1(4,5)-pyrazolacycloundecaphane-5^6-yl)piperazin-2-yl)acetonitrile]	84.5
0.709	0.632	92.8	Cc1cc2cc(n1)-c1cnn(C)c1OCC[C@H]1C[C@@H]1CN1/C(=N/C2=O)Nc2ccc(N3CCN(C[C@H]4C[C@H](Nc5cc(F)c([C@H]6CCC(=O)NC6=O)c(F)c5)C4)CC3)cc21 [Example 457, (R)-3-(4-(((1S,3R)-3-((4-((7^1S,7^2R,E)-1^1,2^6-dimethyl-3-oxo-5^2,5^3-dihydro-1^1H,5^1H-10-oxa-4-aza-5(2,1)-benzo[d]imidazola-2(2,4)-pyridina-1(4,5)-pyrazola-7(1,2)-cyclopropanacyclodecaphane-5^6-yl)piperazin-1-yl)methyl)cyclobutyl)amino)-2,6-difluorophenyl)piperidine-2,6-dione]	91.81
0.985	0.809	92.7	Cc1cc2cc(n1)-c1cnn(C)c1OCC[C@H]1C[C@@H]1CN1/C(=N/C2=O)Nc2ccc(N3CCC(N4CCN(c5cc(F)c([C@H]6CCC(=O)NC6=O)c(F)c5)CC4=O)CC3)cc21 [Example 458, (R)-3-(4-(4-(1-((7'S,7^2R,E)-1^1,2^6-dimethyl-3-oxo-5^2,5^3-dihydro-1^1H,5^1H-10-oxa-4-aza-5(2,1)-benzo[d]imidazola-2(2,4)-pyridina-1(4,5)-pyrazola-7(1,2)-cyclopropanacyclodecaphane-5^6-yl)piperidin-4-yl)-3-oxopiperazin-1-yl)-2,6-difluorophenyl)piperidine-2,6-dione]	92.47
0.624	0.431	84.1	Cc1cc2cc(n1)-c1cnn(C)c1OCCC[C@@H](C)CN1/C(=N/C2=O)Nc2ccc(NC3CN(C4CCN(c5cc(F)c([C@H]6CCC(=O)NC6=O)c(F)c5)CC4)C3)cc21 [Example 459, (R)-3-(2,6-difluoro-4-(4-(3-(((R,E)-1^1,2^6,7-trimethyl-3-oxo-5^2,5^3-dihydro-1^1H,5^1H-11-oxa-4-aza-5(2,1)-benzo[d]imidazola-2(2,4)-pyridina-1(4,5)-pyrazolacycloundecaphane-5^6-yl)amino)azetidin-1-yl)piperidin-1-yl)phenyl)piperidine-2,6-dione]	73.95
0.702	1.64	90.6	Cc1cc2cc(n1)-c1cnn(C)c1OCC[C@H]1C[C@@H]1CN1/C(=N/C2=O)Nc2ccc(N3CCN(CC4CN(c5cc(F)c([C@H]6CCC(=O)NC6=O)c(F)c5)C4)CC3)cc21 [Example 461, (R)-3-(4-(3-((4-((7^1S,7^2R,E)-1^1,2^6-dimethyl-3-oxo-5^2,5^3-dihydro-1^1H,5^1H-10-oxa-4-aza-5(2,1)-benzo[d]imidazola-2(2,4)-pyridina-1(4,5)-pyrazola-7(1,2)-cyclopropanacyclodecaphane-5^6-yl)piperazin-1-yl)methyl)azetidin-1-yl)-2,6-difluorophenyl)piperidine-2,6-dione]	84.7
0.604	0.624	91.8	Cc1cc2cc(n1)-c1cnn(C)c1OCC[C@H]1C[C@@H]1CN1/C(=N/C2=O)Nc2ccc(N3CCN(C4CCN(c5cnc(C6CCC(=O)NC6=O)cc5C)CC4)CC3)cc21 (stereo partly drawn) [Example 463, 3-(5-(4-(4-((7'S,7^2R,E)-1^1,2^6-dimethyl-3-oxo-5^2,5^3-dihydro-1^1H,5^1H-10-oxa-4-aza-5(2,1)-benzo[d]imidazola-2(2,4)-pyridina-1(4,5)-pyrazola-7(1,2)-cyclopropanacyclodecaphane-5^6-yl)piperazin-1-yl)piperidin-1-yl)-4-methylpyridin-2-yl)piperidine-2,6-dione]	90.22
0.678	0.646	85	Cc1cc2cc(n1)-c1cnn(C)c1OCCC[C@@H](C)CN1/C(=N/C2=O)Nc2ccc(N3CCN(C[C@H]4CCN(c5cc(F)c([C@H]6CCC(=O)NC6=O)c(F)c5)C4)CC3=O)cc21 [Example 464, (R)-3-(2,6-difluoro-4-((R)-3-((3-oxo-4-((R,E)-1^1,2^6,7-trimethyl-3-oxo-5^2,5^3-dihydro-1^1H,5^1H-11-oxa-4-aza-5(2,1)-benzo[d]imidazola-2(2,4)-pyridina-1(4,5)-pyrazolacycloundecaphane-5^6-yl)piperazin-1-yl)methyl)pyrrolidin-1-yl)phenyl)piperidine-2,6-dione]	82.71

— US20240342292A1, “Compounds for the Degradation of EGFR Kinase” (BeiGene Switzerland GmbH, priority 2021, published 2024)
